From PubChem BioAssay (NCI) come the findings set out here.

Holding throughout (experiment): growth of human tumour cells (NCI), 48 h
Experiment [1] has as its system BT-549 breast.
In experiment [2] the test system is DU-145 prostate.
Experiment [3] has as its system HCC-2998 colon.
Experiment [4] has as its system HS 578T breast.
For experiment [5], the system named is M14 melanoma.
Experiment [6] concerns NCI-H23 lung.
Experiment [7] concerns NCI-H522 lung.
Experiment [8] concerns NCI/ADR-RES ovarian.
Experiment [9] concerns OVCAR-8 ovarian.
In experiment [10] the test system is RXF 393 renal.

Values joined by “and” are separate entries in the source; they are usually repeats but may differ in a detail not shown here. Identical values can stand only once.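 Results reflect a 48-hour exposure of cells in 96-well plates to compound at five concentrations. GI50 = concentration required for 50% inhibition of growth. The concentration for full growth arrest is given as TGI.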

In the case of `OC(c1cc(-c2ccc(C(F)(F)F)cc2)nc(C(F)(F)F)c1)C1CCCCN1` (centres undefined), the GI50 was 1700 nM in experiment [1]; 1760 nM and 2660 nM in experiment [2]; 530 nM in [3]; 1960 nM and 3920 nM in [4]; 1680 nM and 2390 nM in [6]; 1650 nM in experiment [8]. In addition, the GI50 in experiment [9] was 1870 nM and 2200 nM. Also, the TGI is 3080 nM in experiment [1]; 3140 nM and 7060 nM in [2]; 1760 nM and 3070 nM in experiment [3]; 4050 nM and 12200 nM in [4]; 3120 nM and 3140 nM in experiment [5]; 3150 nM and 6120 nM in experiment [6]. For the same compound, the TGI in experiment [7] was 3190 nM and 3270 nM; in experiment [8], 3100 nM and 5990 nM; in [9] it was 3620 nM and 4590 nM; in experiment [10], 3150 nM.

Take `CC(C)(C)[Si](C)(C)OC1[C@@H](CNC(=O)NC(=O)CCl)O[C@@H](n2cnc3c(N)ncnc32)[C@H]1O[Si](C)(C)C(C)(C)C` (some centres undefined): the GI50 in experiment [1] was 869 nM; in experiment [2], 2050 nM; in experiment [3] it was 1610 nM; in experiment [4] it was 1140 nM; in experiment [5], 1070 nM; in experiment [6], 955 nM. The GI50 in experiment [7] is 718 nM; in experiment [8], 1180 nM; in [9] it was 812 nM; in experiment [10], 859 nM. Moreover, the TGI is 1730 nM in [1]; 5260 nM in experiment [2]; 3950 nM in [3]; 3170 nM in experiment [4]; 2490 nM in experiment [5]; 2080 nM in experiment [6]. In addition, the TGI in [7] came out at 1610 nM; in experiment [8], 3110 nM; in experiment [9], 2850 nM; in experiment [10] it was 1580 nM.

Take `CCNC(=O)/C(=C/c1ccc(OC)cc1)c1cc(OC)c(OC)c(OC)c1`: the TGI was over 100000 nM in experiment [1]; 80200 nM in [2]; over 39300 nM in [3]; over 42200 nM in [4]; over 100000 nM in [5]; over 85300 nM in experiment [6]. Besides, the TGI was 20800 nM in [7], over 28000 nM in experiment [8], over 100000 nM in [9] and 11200 nM in experiment [10].

As for `CCCCCCCCCCNC(=O)CI`, the GI50 in [1] was 1730 nM; in experiment [2], 1950 nM; in [3], 3530 nM; in experiment [4] it was 2530 nM; in experiment [5] it was 1590 nM; in [6], 929 nM. The GI50 is 151 nM in experiment [7], 2320 nM in [8], 1550 nM in experiment [9] and 1740 nM in experiment [10]. Moreover, the TGI in experiment [1] is 3350 nM; in experiment [2], 3720 nM; in [3], 11500 nM; in experiment [4], 6790 nM; in experiment [5], 3200 nM; in experiment [6] it was 2740 nM. In addition, the TGI in [7] is 331 nM; in experiment [8], 5560 nM; in experiment [9], 4520 nM; in experiment [10], 3530 nM.

Regarding `N[C@H](CCC(=O)N[C@@H](Cc1c[nH]c2ccccc12)C(=O)O)C(=O)O`, the GI50 in [1], in [2], in experiment [3], in [4], in experiment [5] and in experiment [6] was over 100000 nM throughout. For the same compound, the GI50 in [7], in [8], in experiment [9] and in [10] was over 100000 nM throughout. Further, the TGI in experiment [1], in experiment [2], in [3], in [4], in experiment [5] and in [6] was over 100000 nM throughout. The TGI in experiment [7], in experiment [8], in [9] and in experiment [10] was over 100000 nM throughout.

`COc1ccc(/C(C)=C(\c2ccc(OCCN3CCCCCC3)cc2)c2ccc(OC(=O)C3CCCCC3)cc2)cc1`: the GI50 in experiment [1] was 1530 nM; in [2] it was 1910 nM; in [3], 1240 nM; in experiment [4] it was 959 nM; in experiment [5], 416 nM; in experiment [6] it was 1290 nM. For the same compound, the GI50 in experiment [7] was 2120 nM; in experiment [8], 1610 nM; in experiment [9], 2040 nM; in experiment [10], 704 nM. The TGI in experiment [1] amounted to 3360 nM; in experiment [2], 4540 nM; in experiment [3], 3360 nM; in experiment [4], 3740 nM; in experiment [5], 1300 nM; in experiment [6], 4320 nM. Further, the TGI was 5360 nM in experiment [7], 4780 nM in [8], 5900 nM in experiment [9] and 2600 nM in experiment [10].

Take `COc1ccc(-c2ccc3c(N4CCOC[C@@H]4C)nc(N4CCOC[C@@H]4C)nc3n2)cc1CO`: the GI50 in experiment [1] was 3.48 nM and 16.2 nM; in [2], 5.84 nM and 41.6 nM; in experiment [3], 9.4 nM and 25.4 nM; in experiment [4], 1.8 nM and 13.1 nM; in experiment [5] it was 5.17 nM and 26.2 nM; in [6], 7.31 nM and 39.4 nM. Also, the GI50 is 4.84 nM in [7]; 13 nM and 58.4 nM in experiment [8]; 7.59 nM and 35.1 nM in experiment [9]; 2.44 nM and < 10.5 nM in experiment [10]. In addition, the TGI in experiment [2] was over 100000 nM; in [3] it was 3210 nM; in [4] it was 14.5 nM and 67.9 nM; in experiment [5] it was 20500 nM; in [6] it was over 100000 nM; in experiment [9] it was 3390 nM. Moreover, the TGI in [10] is 6.76 nM and 64.3 nM.

Take `CCc1ccc2c(c1)C(=O)c1c-2n(CCCN=[N+]=[N-])c(=O)c2cc([N+](=O)[O-])ccc12`: the GI50 in [1], in [2], in [3], in experiment [4], in experiment [5] and in [6] was over 50000 nM throughout. Moreover, the GI50 in experiment [7], in [8], in [9] and in experiment [10] was over 50000 nM in each case. Besides, the TGI in experiment [1], in experiment [2], in experiment [3], in [4], in [5] and in experiment [6] was over 50000 nM each time. Further, the TGI in [7], in [8], in [9] and in [10] was over 50000 nM each time.
